These results are taken from US20110003892A1, “ALL-TRANS RETINOID ESTERS AS ACTIVE PHARMACEUTICAL INGREDIENTS, ORAL AND TOPICAL DOSAGE FORM COMPOSITIONS THEREOF, AND METHODS OF TREATING SKIN CONDITIONS THEREOF” (priority 2008, published 2011).

The subject of data set [1] is RARs. The note with it: Repa J J et al., 1993; cited from earlier work.
Data set [2] has as its system Rhino mice. Description: Comedolytic effect in orally dosed Rhino mice (comedone area by histology). Format: in vivo. Conditions: oral treatment; for dose producing maximal reduction in comedone size as compared to the vehicle control: 24 days (FIG. 1); for reduction in comedone area: each retinoid alone, 24 days, various doses (FIG. 1). As to the method:
(§1) Animals and dose administration. Rhino mice 6-8 weeks old were orally dosed. The mice were dosed daily. The mice were weighed three times per week, and doses were adjusted weekly based on body weight. The oral formulation was made by mixing each API with Wesson® soybean oil. The oral dose was delivered to the back of the mouth of each mouse. Mice were sacrificed 4 hours after the final oral dose. At sacrifice, the dorsal skin was collected for histological studies.
Comedolytic effect. The extent of the comedolytic effect (i.e., efficacy) was assessed by measuring the average area of the comedones, whereby the smaller the area, the larger the effect and efficacy. The comedone area was determined by histological analysis of tissue sections. Skin was fixed overnight in 4% paraformaldehyde at 4° C. with gentle agitation, and the skin was dehydrated the next day in 100% methanol. Samples were embedded in paraffin and a qty. nine 10μ sections each spaced 150μ apart were prepared from each Rhino mouse. Five of the nine sections were digitally imaged (6× magnification) for comedone analysis using Metamorph Imaging Software (trace function).
The perimeter of each imaged comedone taken from the 5 sections was traced using a Wacom Intuos 3 Graphics Tablet interfaced with the software. The number of pixels representing each individual comedone area was obtained. The mean number of pixels per comedone was obtained for each Rhino mouse. For comedones that were completely healed (i.e., area=0), a pixel value approaching 0 (<10) was assessed. The individual comedone average for each mouse was used to calculate the treatment group mean. Results in the figures herein have been expressed in terms of mean±standard error of the mean.
Preparation of oral retinoid dosing formulations. A concentrated stock solution containing each retinoid was prepared in dichloromethane. The retinoid concentrated stock solution was diluted into ethanol. The concentration of retinoid in that diluted stock solution was determined spectrophotometrically, whereby the molar extinction coefficient=44,340 and λmax=350. The purity of the SB-RA, IPE-RA, IB-RA, and t-butyl RA was determined to be greater than 98% by HPLC. A predetermined volume of retinoid-containing solution was added to Wesson® oil, the sample was mixed, and the residual dichloromethane was removed by flushing the oil with argon for 2-3 hours under a vapor hood. The final dose was delivered orally using ≦50 μL of oil.

Data set [3] in a line: Body weight change from baseline in orally dosed Rhino mice. It counts as in vivo. The note with it: oral treatment, 24 days, any dose of retinoid studied (FIG. 2). As for the experimental part: as §1

Turning to `CC1=C(/C=C/C(C)=C/C=C/C(C)=C\C(=O)O)C(C)(C)CCC1` [13-cis retinoic acid], the “binding to the RARs” value in data set [1] is given as “does not bind”.

Take `CC1=C(/C=C/C(C)=C/C=C/C(C)=C/C(=O)OCC(C)C)C(C)(C)CCC1` [IB-RA, All-trans-retinoic acid iso-butyl ester]: in data set [2], the “dose producing maximal reduction in comedone size as compared to the vehicle control” value (shortened to “dose producing maximal reduction”) was determined as 26.2 μmole/kgBW and the “reduction in comedone area” value is reported as “significant dose-dependent reduction”. In data set [3], the “% change from the starting baseline weight (overall group weight)” value (“% change” for short) is “no significant reduction”.

`CC1=C(/C=C/C(C)=C/C=C/C(C)=C/C(=O)OC(C)(C)C)C(C)(C)CCC1` [t-butyl-RA, all-trans-retinoic acid tert-butyl ester]: in data set [2], the “dose producing maximal reduction” value turned out to be 166 μmole/kgBW and the “reduction in comedone area” value is “significant dose-dependent reduction”. Moreover, in data set [3], the “% change” value is listed as “no significant reduction”.

As to `CCC(C)OC(=O)/C=C(C)/C=C/C=C(C)/C=C/C1=C(C)CCCC1(C)C` (stereo not drawn) [SB-RA, all-trans-retinoic acid sec-butyl ester], in data set [2], the “dose producing maximal reduction” value was 26.2 μmole/kgBW and the “reduction in comedone area” value is given as “significant dose-dependent reduction”. The “% change” value in data set [3] is on record as “no significant reduction”.

In the case of `CC1=C(/C=C/C(C)=C/C=C/C(C)=C/C(=O)OC(C)C)C(C)(C)CCC1` [IPE-RA, all-trans-retinoic acid iso-propyl ester], in data set [2], the “dose producing maximal reduction” value came to 26.2 μmole/kgBW and the “reduction in comedone area” value is on record as “significant dose-dependent reduction”. Further, the “% change” value in data set [3] is reported as “no significant reduction”.
